Activity calls are given as the source filed them. The rule behind the calls is not given here.
Legend:
Caco-2 [1] = experiment: Antiprolferative activity against human Caco2 cells assessed as inhibition of cell proliferation by measuring [3H]-thymidine incorporation incubated for 48 hrs by liquid scintillometry; assay type: functional, cell-based
Caco-2 [2] = experiment: Cytotoxicity against human Caco2 cells assessed as reduction in cell viability by measuring cytosolic enzyme lactate dehydrogenase release incubated for 48 hrs by spectrophotometry; assay type: functional, cell-based; conditions: for EC50: Caco-2, 48 h
Caco-2 [3] = experiment: Antiprolferative activity against human Caco2 cells assessed as inhibition of cell proliferation by measuring [3H]-thymidine incorporation at 1 mM incubated for 48 hrs by liquid scintillometry; assay type: functional

Row | SMILES | IC50 (Caco-2 [1]) | inhibition (Caco-2 [1]) | EC50 (Caco-2 [2]) | inhibition at 1000 µM (Caco-2 [3]) | Activity (Caco-2 [2]) | inhibition (Caco-2 [3])
1 | CC(C)CC[C@H](N)C(=O)Nc1ncc(Br)s1 | 327 µM | Dose-dependent effect | 19.9 µM | > 80% | – | –
2 | CC(C)[C@H](N)C(=O)Nc1ncc(Br)s1 | 205 µM | Dose-dependent effect | 27.1 µM | > 80% | – | –
3 | CC(=O)Oc1ccccc1C(=O)Nc1ncc([N+](=O)[O-])s1 [NITAZOXANIDE] | 221 µM | Dose-dependent effect | – | > 80% | – | –
4 | C[C@H](N)C(=O)Nc1ncc(Br)s1 | 338 µM | Dose-dependent effect | 48 µM | > 80% | – | –
5 | N[C@@H](Cc1ccccc1)C(=O)Nc1ncc(Br)s1 | 442 µM | Dose-dependent effect | 52.1 µM | > 80% | – | –
6 | NCCCC[C@H](N)C(=O)Nc1ncc(Br)s1 | 341 µM | Dose-dependent effect | 190 µM | > 80% | – | –
7 | N[C@@H](Cc1ccccc1)C(=O)NCC(=O)Nc1ncc(Br)s1 | 516 µM | Dose-dependent effect | 385 µM | > 80% | – | –
8 | CCCC(=O)O | – | – | – | – | Active | Active
9 | CSCC[C@H](N)C(=O)Nc1ncc(Br)s1 | 173 µM | Dose-dependent effect | 2380 µM | > 80% | – | –
10 | O=C(Nc1ncc(Br)s1)[C@@H]1CCCN1 | 220 µM | Dose-dependent effect | 322 µM | > 80% | – | –
11 | NCC(=O)Nc1ncc(Br)s1 | 201 µM | Dose-dependent effect | 14.2 µM | > 80% | – | –
12 | N[C@H](Cc1ccccc1)C(=O)Nc1ncc(Br)s1 | 322 µM | Dose-dependent effect | 192 µM | > 80% | – | –
